Assay results as given in publication PMC12486385 (Virus Evolution, 2025).
No end group written: not given here.

Key:
[1] = Peptide precipitation / solubility under assay conditions; assay type: physicochemical
[2] = test system: NTRs (IMP⍺1/2/3/5/7 and IMPβ1/2/3); experiment: Fluorescence polarization; assay type: binding, human; mouse (IMP⍺2); details: FP; poor peptide solubility
[3] = target: human importin beta 1 (hIMPβ1) (human, UniProt Q14974 1-876); experiment: fluorescence polarisation
human importin beta 1 (hIMPβ1), sequence (Q14974 whole entry): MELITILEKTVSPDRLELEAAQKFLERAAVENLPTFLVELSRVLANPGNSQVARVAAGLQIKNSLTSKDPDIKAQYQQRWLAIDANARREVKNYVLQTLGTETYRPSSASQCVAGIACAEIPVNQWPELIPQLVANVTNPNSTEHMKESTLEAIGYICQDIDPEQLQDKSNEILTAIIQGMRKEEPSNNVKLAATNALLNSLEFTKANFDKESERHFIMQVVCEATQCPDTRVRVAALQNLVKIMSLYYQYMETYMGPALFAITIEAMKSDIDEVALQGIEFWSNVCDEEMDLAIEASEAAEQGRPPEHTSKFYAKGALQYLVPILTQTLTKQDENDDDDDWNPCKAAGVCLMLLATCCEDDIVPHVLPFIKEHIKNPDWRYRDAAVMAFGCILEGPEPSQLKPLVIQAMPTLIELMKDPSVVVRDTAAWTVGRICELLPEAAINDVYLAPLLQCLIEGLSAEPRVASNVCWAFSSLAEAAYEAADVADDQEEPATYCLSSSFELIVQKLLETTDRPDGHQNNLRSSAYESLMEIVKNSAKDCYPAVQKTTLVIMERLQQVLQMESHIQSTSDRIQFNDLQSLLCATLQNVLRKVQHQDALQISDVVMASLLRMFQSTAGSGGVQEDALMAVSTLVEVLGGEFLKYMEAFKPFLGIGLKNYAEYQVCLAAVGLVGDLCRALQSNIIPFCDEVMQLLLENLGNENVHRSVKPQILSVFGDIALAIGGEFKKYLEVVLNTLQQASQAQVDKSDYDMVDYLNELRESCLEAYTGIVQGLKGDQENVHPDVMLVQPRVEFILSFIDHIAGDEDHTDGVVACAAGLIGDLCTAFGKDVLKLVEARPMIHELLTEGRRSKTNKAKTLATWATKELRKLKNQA

Row | Molecule | precipitation ([1]; EMSA conditions, 10 μM FITC-peptide, TB buffer) | solubility (in words) ([1]; FP conditions, 10 nM FITC-peptide, SEC buffer pH 8) | interaction with NTRs (in words) [2] | binding result [3]
1 | 27-RRWRRRPRRRRRPYRRRPYRRYGRRRKVRRR-57 [ORF1 NLSn] | consistently precipitated, suggesting poor solubility under assay conditions | poor peptide solubility | no interaction could be detected | –
2 | YGRRRKVRRR (also: FITC-tagged, end not given here) [ORF1 NLSn_B peptide (TTDoV ORF1 residues 48-57, predicted monopartite cNLS)] | – | – | – | binds
